Results from the supplement of paper PMC10307832.

Experiments:
Experiment in all cases: relative viability (nuclei count vs DMSO), 5 days (fraction); higher = more cells survive
[1] = tested on: NCI-H2170
Procedure, shortened: (§1)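 Relative viability equals treated-well nuclei counts divided by vehicle-well nuclei counts. Counts came from 4× images of lung cancer cell lines grown in 1536-well plates for 5 days after pin-tool dosing on the day after seeding. Dosing used one drug alone or a fixed anchor-drug dose plus five library-drug doses (not always all listed) in √10 steps, and values are medians of duplicate plates.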

[2] = tested on: NCI-H647
Procedure, shortened: as §1

[3] = tested on: NCI-H650
Procedure, shortened: as §1

[4] = tested on: NCI-H727
Procedure, shortened: as §1

[5] = tested on: NCI-H2347
Procedure, shortened: as §1

[6] = tested on: NCI-H2126
Procedure, shortened: as §1

[7] = tested on: NCI-H1793
Procedure, shortened: as §1

[8] = tested on: NCI-H520
Procedure, shortened: as §1

[9] = tested on: NCI-H460
Procedure, shortened: as §1

[10] = tested on: HOP-62
Procedure, shortened: as §1

[11] = tested on: HCC-44
Procedure, shortened: as §1

[12] = tested on: NCI-H2023
Procedure, shortened: as §1

[13] = tested on: NCI-H2405
Procedure, shortened: as §1

[14] = tested on: EPLC-272H
Procedure, shortened: as §1

[15] = tested on: SW 1573
Procedure, shortened: as §1

[16] = tested on: NCI-H2009
Procedure, shortened: as §1

[17] = tested on: NCI-H1437
Procedure, shortened: as §1

[18] = tested on: LOU-NH91
Procedure, shortened: as §1

[19] = tested on: EMC-BAC-2
Procedure, shortened: as §1

[20] = tested on: NCI-H441
Procedure, shortened: as §1

In the case of `COCC1(CO)C(=O)C2CCN1CC2` (stereo unspecified) [PRIMA-1MET] + Cc1nc(NC(=O)N2CCC[C@H]2C(N)=O)sc1-c1ccnc(C(C)(C)C(F)(F)F)c1 [Alpelisib] (partner 2 µM), the relative viability ([1]; first compound 0.2 µM) is reported as 0.889, the relative viability ([1]; first compound 0.6325 µM) is reported as 0.749 and the relative viability ([1]; first compound 2 µM) is reported as 0.864. It also gave a relative viability ([1]; first compound 6.325 µM) of 0.847, a relative viability ([1]; first compound 20 µM) of 0.733 and a relative viability ([2]; first compound 0.2 µM) of 1.33. The relative viability ([2]; first compound 0.6325 µM) was 1.04, the relative viability ([2]; first compound 2 µM) was 1.13 and the relative viability ([2]; first compound 6.325 µM) was 1.09. The relative viability ([2]; first compound 20 µM) was 0.892, the relative viability ([3]; first compound 0.2 µM) was 1.38 and the relative viability ([3]; first compound 2 µM) was 1.08. For the same molecule, the relative viability ([3]; first compound 6.325 µM) was 1.02, the relative viability ([3]; first compound 20 µM) was 0.099 and the relative viability ([4]; first compound 0.2 µM) was 0.592. For the same molecule, the relative viability ([4]; first compound 0.6325 µM) was 0.612, the relative viability ([4]; first compound 2 µM) was 0.568 and the relative viability ([4]; first compound 6.325 µM) was 0.402. For the same molecule, the relative viability ([4]; first compound 20 µM) was 0.0858, the relative viability ([5]; first compound 0.2 µM) was 1.08 and the relative viability ([5]; first compound 0.6325 µM) was 1.01. The relative viability ([5]; first compound 2 µM) was 0.602, the relative viability ([5]; first compound 6.325 µM) was 1.08 and the relative viability ([5]; first compound 20 µM) was 0.923. It also gave a relative viability ([6]; first compound 0.2 µM) of 0.822, a relative viability ([6]; first compound 0.6325 µM) of 0.749 and a relative viability ([6]; first compound 2 µM) of 0.743. It also gave a relative viability ([6]; first compound 6.325 µM) of 0.848, a relative viability ([6]; first compound 20 µM) of 0.706 and a relative viability ([7]; first compound 0.2 µM) of 0.953. The relative viability ([7]; first compound 0.6325 µM) was 0.676, the relative viability ([7]; first compound 6.325 µM) was 0.736 and the relative viability ([7]; first compound 20 µM) was 0.707. It also gave a relative viability ([8]; first compound 0.2 µM) of 1.21, a relative viability ([8]; first compound 0.6325 µM) of 0.84 and a relative viability ([8]; first compound 6.325 µM) of 0.831. It also gave a relative viability ([8]; first compound 20 µM) of 0.0746, a relative viability ([9]; first compound 0.2 µM) of 0.571 and a relative viability ([9]; first compound 0.6325 µM) of 0.358. For the same molecule, the relative viability ([9]; first compound 2 µM) was 0.411, the relative viability ([9]; first compound 6.325 µM) was 0.0066 and the relative viability ([9]; first compound 20 µM) was 0.0038. It also gave a relative viability ([10]; first compound 0.2 µM) of 1.13, a relative viability ([10]; first compound 0.6325 µM) of 0.986 and a relative viability ([10]; first compound 2 µM) of 0.732. It also gave a relative viability ([10]; first compound 6.325 µM) of 1.18, a relative viability ([10]; first compound 20 µM) of 0.487 and a relative viability ([11]; first compound 0.2 µM) of 0.87. The relative viability ([11]; first compound 0.6325 µM) was 0.647, the relative viability ([11]; first compound 2 µM) was 0.673 and the relative viability ([11]; first compound 6.325 µM) was 0.801. For the same molecule, the relative viability ([11]; first compound 20 µM) was 0.737, the relative viability ([12]; first compound 0.2 µM) was 0.7 and the relative viability ([12]; first compound 0.6325 µM) was 0.69. The relative viability ([12]; first compound 2 µM) was 0.564, the relative viability ([12]; first compound 6.325 µM) was 0.615 and the relative viability ([12]; first compound 20 µM) was 0.568. The relative viability ([13]; first compound 0.2 µM) was 0.517, the relative viability ([13]; first compound 0.6325 µM) was 0.896 and the relative viability ([13]; first compound 6.325 µM) was 0.625. It also gave a relative viability ([13]; first compound 20 µM) of 0.0731, a relative viability ([14]; first compound 0.2 µM) of 1.06 and a relative viability ([14]; first compound 0.6325 µM) of 0.784. It also gave a relative viability ([14]; first compound 2 µM) of 0.869, a relative viability ([14]; first compound 6.325 µM) of 0.869 and a relative viability ([14]; first compound 20 µM) of 0.667. For the same molecule, the relative viability ([15]; first compound 0.2 µM) was 0.845, the relative viability ([15]; first compound 0.6325 µM) was 0.691 and the relative viability ([15]; first compound 2 µM) was 0.538. The relative viability ([15]; first compound 6.325 µM) was 0.355, the relative viability ([15]; first compound 20 µM) was 0.0324 and the relative viability ([16]; first compound 0.2 µM) was 1.12. For the same molecule, the relative viability ([16]; first compound 0.6325 µM) was 1.15, the relative viability ([16]; first compound 2 µM) was 1.23 and the relative viability ([16]; first compound 6.325 µM) was 1.13. It also gave a relative viability ([16]; first compound 20 µM) of 0.325, a relative viability ([17]; first compound 0.2 µM) of 1 and a relative viability ([17]; first compound 0.6325 µM) of 0.972. It also gave a relative viability ([17]; first compound 2 µM) of 1.01, a relative viability ([17]; first compound 6.325 µM) of 1.12 and a relative viability ([17]; first compound 20 µM) of 0.926. The relative viability ([18]; first compound 0.2 µM) was 0.78, the relative viability ([18]; first compound 0.6325 µM) was 0.652 and the relative viability ([18]; first compound 2 µM) was 0.569. For the same molecule, the relative viability ([18]; first compound 6.325 µM) was 0.669, the relative viability ([18]; first compound 20 µM) was 0.507 and the relative viability ([19]; first compound 0.2 µM) was 0.82. It also gave a relative viability ([19]; first compound 0.6325 µM) of 0.719, a relative viability ([19]; first compound 2 µM) of 0.666 and a relative viability ([19]; first compound 6.325 µM) of 0.775. It also gave a relative viability ([19]; first compound 20 µM) of 0.759, a relative viability ([20]; first compound 0.2 µM) of 0.648 and a relative viability ([20]; first compound 0.6325 µM) of 0.792. The relative viability ([20]; first compound 2 µM) was 0.762, the relative viability ([20]; first compound 6.325 µM) was 0.816 and the relative viability ([20]; first compound 20 µM) was 0.118.
